In patent US10093706B2, “Dominant positive hnRNP-E1 polypeptide compositions and methods” (Indiana University Research and Technology Corporation, priority 2017, dated 2018):
Values joined by “and” are separate entries in the source; they are usually repeats but may differ in a detail not shown here. Equal entries are not always repeated. Values belong to the compound of their own block, whether it stands above or below them.

Key:
[1] = test system: folate receptor-α mRNA; experiment: In vitro translation of folate receptor-α; type: biochemical, human
Procedure: (§1) In vitro transcription-translation was carried out using the Linked SP6/T7 In Vitro Transcription/Translation Kit (Roche Applied Science) after addition of one of various targeted DNAs—pSPT18-25-hnRNP-E1 DNA, or Pst1-linearized plasmid pSPT18-folate receptor-α, or HPV16 L2 DNA, (0.5 μg/reaction)—to the transcription mix as described. In other experiments, the capacity for perturbing the interaction of hnRNP-E1 with the 25-nt hnRNP-E1 cis-element during in vitro translation was assessed in the presence of either scrambled oligonucleotides (5′-GCGTCGCTCGCTTCGCACGTGCGCC-3′ SEQ ID NO:20) or specific antisense oligonucleotides (5′-GGG AGC GAG CGG GCG GGA G-3′ SEQ ID NO:21) generated against the 25-nt hnRNP-E1 mRNA cis-element (GenScript USA, Piscataway, N.J.).

[2] = test system: HPV16 L2 mRNA cis-element; experiment: Gel-shift assay of hnRNP-E1 proteins with HPV16 L2 mRNA; type: binding, Human Papillomavirus type 16; details: absence of reducing agents; versus wild-type and G292A
Procedure: (§2) Parenthetically, there was no significant difference in RNA binding to GST-hnRNP-E1 by use of either 32P-RNA probes or 35S-labeled RNA probes used. Other studies assessed the effect of iron(II) or iron(III) on homocysteine-induced RNA-protein interactions.
(§3) Construction of plasmids for generation of HPV16 L2 RNA, gel-shift and in vitro translation studies were carried as described with additional treatments shown in FIGS. 10A-10D

[3] = target: hnRNP-E1 binding to folate receptor mRNA and hnRNP-E1 mRNA cis-element (Homo sapiens, UniProt Q15365); details: physiologically relevant thiols; cited from earlier work
[4] = target: T1, RNA-protein complexes of GST-hnRNP-E1 and 25-nt hnRNP-E1 mRNA cis-element (Homo sapiens, UniProt Q15365, A205V); experiment: Gel-shift assay: effect of thiols, iron and deferoxamine on RNA-protein complex formation; type: binding; details: 100-μM thiol
T1 construct: made in house; host or cells: Escherichia coli BL21

[5] = test system: newly synthesized [^35S]hnRNP-E1 in placental 1584-HF cells; experiment: Biosynthetic rate of hnRNP-E1 after oligonucleotide transfection into placental 1584-HF cells; type: cell-based, human; details: oligonucleotide transfected into placental 1584-HF cells
From the text: On the day before transfection, placental 1584-HF cells were trypsinized, counted, and plated in 6-well plates at 2×10^5 cells per well in 2.5-mL of MEM-HF medium, so that cells would be 70-80% confluent after overnight culture. Cells were then transfected with either wild-type, or scrambled DNA, or antisense DNA to 25-nt hnRNP-E1 cis-element using Lipofectamine 2000 DNA transfection reagent and the manufacturer's protocol. One well of cells was trypsinized and harvested on day-3 (2 days after transfection) as a control. Cells in the remaining 5 wells were starved of cysteine using cysteine-free MEM-HF for 4-h following which the rate of biosynthesis of hnRNP-E1 protein was determined in transfected cells by specifically immunoprecipitating and quantifying newly synthesized [^35S]hnRNP-E1.

[6] = test system: hnRNP-E1 mRNA; experiment: In vitro translation of hnRNP-E1; type: biochemical, human; details: agent added to translation mixture (4.1-mM ß-ME)
Procedure: as §1, with “(5′-[…]-3′” for “(5′-GCGTCGCTCGCTTCGCACGTGCGCC-3′”, “(5′-[…]-3′” for “(5′-GGG AGC GAG CGG GCG GGA G-3′”

[7] = target: T1, RNA-protein complexes of GST-hnRNP-E1 and 25-nt hnRNP-E1 mRNA cis-element; experiment: Gel-shift assay: effect of thiols, iron and deferoxamine on RNA-protein complex formation; type: binding; details: fixed L-homocysteine
Procedure: Other studies assessed the effect of iron(II) or iron(III) on homocysteine-induced RNA-protein interactions.
Studies were conducted to evaluate the effect of iron(II) (as ferrous sulfate heptahydrate) or iron(III) (as ferric chloride hexahydrate) in modulating RNA-protein interactions during gel-shift assays in either the absence or presence of 10-mM glutathione. The iron preparation, either alone or with 50-μM of deferoxamine (DFO) to define the specificity of iron(II), was incubated first with glutathione and hnRNP-E1 before addition of other components of the reaction mixture. […] The samples were analyzed by PAGE and autoradiography overnight followed by densitometric analysis of the signals representing RNA-protein complexes.

[8] = target: [^35S]18-nt folate receptor-α mRNA cis-element; experiment: Dissociation constant (KD) of GST-hnRNP-E1 or its mutant proteins for the 18-nt folate receptor-α mRNA cis-element; type: binding, human; details: L-Homocysteine 0 μM; listed as wild-type-like hnRNP-E1(G292A)-mutant
Procedure: (§4) Methods for testing the ability of an engineered hnRNP-E1 variant polypeptide to bind to an RNA comprising the sequence of SEQ ID NO:6 are known in the art. Such methods include, but are not limited to, RNA electrophoretic mobility shift assays, as exemplified herein, RNA pull-down assays, and oligonucleotide-targeted RNase H protection assays. Such assays are conducted in the presence or absence of homocysteine to determine the RNA-binding dependence of any particular hnRNP-E1 polypeptide tested on the presence of homocysteine. […] Additional methods are outline in Tang et al. (“Incrimination of heterogeneous nuclear ribonucleoprotein E1 (hnRNP-E1) as a candidate sensor of physiological folate deficiency.” J Biol Chem. 2011; 286(45):39100-39115), which is incorporated herein in its entirety.
(§5) Specific binding was determined by subtracting values of non-specific binding with GST from those of total binding with GST-hnRNP-E1; (however, in Table 1 and FIG. 6G, non-specific binding using bovine serum albumin (BSA) was subtracted from total binding to GST-hnRNP-E1 to determine specific binding). The KD was calculated from a Scatchard plot using GraphPad Prism 6 from GraphPad Software (San Diego, Calif.), as previously described in the art.

[9] = target: [^35S]25-nt hnRNP-E1 mRNA cis-element; experiment: Dissociation constant (KD) of GST-hnRNP-E1 or its mutant proteins for the 25-nt hnRNP-E1 mRNA cis-element; type: binding, human; details: L-Homocysteine 0 μM
Procedure: as §4, §5

[10] = test system: newly synthesized [^35S]hnRNP-E1 in placental 1584-HF cells; experiment: Biosynthetic rate of hnRNP-E1 after protein transfection into placental 1584-HF cells; type: cell-based, human; details: protein transfected in placental 1584-HF cells
From the text: (§6) Transfection of purified recombinant wild-type or various mutant hnRNP-E1 proteins into cells was achieved using the Xfect™ Protein Transfection Kit (Clontech, Mountain View, Calif.). Briefly, placental 1584-HF cells in 10-cm dishes at 70-80% confluence were transfected with 2.4-mL serum-free medium and Xfect Protein Transfection Reagent (1.2-mL) containing 20-μg of either wild-type hnRNP-E1-, or highest-affinity (HA)-hnRNP-E1(C293S)-mutant, or wild-type-like hnRNP-E1 (G292A)-mutant proteins and 2-μg of ß-galactosidase at 37° C. for 60-min. After cysteine-starvation for 4-h, an aliquot of cells were assessed for ß-galactosidase activity (to measure the efficiency of co-transfection of ß-galactosidase) and the remaining cells were pulsed with L-[^35S]cysteine (250-μCi) and assessed for specific [^35S]cysteine incorporated into folate receptor to determine the biosynthetic rate of this protein. A similar protocol was employed for analysis of newly synthesized [^35S]hnRNP-E1 using anti-hnRNP-E1 antiserum-coupled agarose and control agarose in order to derive values for specific [^35S]cysteine incorporated into hnRNP-E1 and thereby determine the biosynthetic rate of this protein.

[11] = test system: 25-nt hnRNP-E1 mRNA cis-element; experiment: Gel-shift assay of hnRNP-E1 proteins with 25-nt hnRNP-E1 mRNA cis-element; type: binding, human; details: absence of L-homocysteine
Procedure: as §2
Recombinant GST-plasmid DNA, pGST-hnRNP-E1, pGST-hnRNP-E2, and related engineered variant plasmids were transformed into BL21 Escherichia coli from Novagen (Madison, Wis.). After induction by 1 mM isopropyl-1-thio-ß-D-galactopyranoside, the GST-hnRNP-E1 and engineered variant fusion proteins were individually purified using the B-PER GST Fusion Protein Purification Kit (Pierce, Rockford, Ill.). The eluted GST fusion proteins were dialyzed against 500 volumes of buffer to remove excess reducing reagents (such as dithiothreitol (DTT)) and assayed by SDS-PAGE and Western blots using anti-peptide hnRNP-E1 antiserum. Gel shift assays with target RNA were carried out as described.

[12] = test system: newly synthesized [^35S]folate receptors in placental 1584-HF cells; experiment: Biosynthetic rate of folate receptors after protein transfection into placental 1584-HF cells; type: cell-based, human; details: protein transfected in placental 1584-HF cells
From the text: as §6

[13] = test system: HPV16 L2 RNA; experiment: In vitro translation of HPV16 L2 protein; type: biochemical, Human Papillomavirus type 16; details: after quenching excess ß-ME by NEM (2 mM)
Procedure: as §1, with “(5′-[…]-3′” for “(5′-GCGTCGCTCGCTTCGCACGTGCGCC-3′”, “(5′-[…]-3′” for “(5′-GGG AGC GAG CGG GCG GGA G-3′”
as §3

[14] = listed as wild-type-like hnRNP-E1(G292A)-mutant

Chain of hnRNP-E1 binding to folate receptor mRNA and hnRNP-E1 mRNA cis-element (Q15365 whole entry): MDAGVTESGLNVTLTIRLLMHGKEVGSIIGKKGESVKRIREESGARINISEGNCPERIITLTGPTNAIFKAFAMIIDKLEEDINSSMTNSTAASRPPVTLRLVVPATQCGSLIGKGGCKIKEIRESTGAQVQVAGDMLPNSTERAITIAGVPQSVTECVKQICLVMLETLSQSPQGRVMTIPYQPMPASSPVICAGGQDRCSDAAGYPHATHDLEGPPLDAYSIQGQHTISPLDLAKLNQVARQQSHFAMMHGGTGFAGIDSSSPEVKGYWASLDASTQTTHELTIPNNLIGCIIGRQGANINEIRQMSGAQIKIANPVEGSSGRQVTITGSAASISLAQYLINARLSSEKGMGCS
T1 sequence (Q15365 whole entry A205V, one chain of several): as the sequence (Q15365 whole entry) above, with A205V counted along it

Compound: hnRNP-E1(C54S)-mutant: hnRNP-E1 with cysteine-54 replaced by serine (SEQ ID NO:3)
- translation of folate receptor-α ([1]; presence of 2-mM NEM): maximally increased
- interaction with HPV16 L2 mRNA on gel-shift assays [2]: greater interaction

- RNA-protein signals relative to L-homocysteine [4]: far weaker
Compound: N[C@@H](CS)C(=O)O [L-Cysteine, L-cysteine]
- hnRNP-E1 activation and mRNA-binding [3]: far less

Compound: Scrambled: scrambled oligonucleotides (5′-GCGTCGCTCGCTTCGCACGTGCGCC-3′ SEQ ID NO:20) (GCGTCGCTCGCTTCGCACGTGCGCC; chemistry not given here)
- [^35S]cysteine-hnRNP-E1 protein [5]: 1.01 ± 0.03 a fmol/mg protein/h
- [^35S]cysteine-hnRNP-E1 protein ([5]; listed as scrambled-oligonucleotides): 1.0 fmol/mg protein/h
- effect on in vitro translation of hnRNP-E1 [6]: failed to quench the translation of hnRNP-E1

Compound: Antisense: antisense oligonucleotides (5′-GGG AGC GAG CGG GCG GGA G-3′ SEQ ID NO:21) against the 25-nt hnRNP-E1 mRNA cis-element (antisense GGGAGCGAGCGGGCGGGAG; chemistry not given here)
- [^35S]cysteine-hnRNP-E1 protein [5]: 0.62 ± 0.02 b fmol/mg protein/h
- [^35S]cysteine-hnRNP-E1 protein ([5]; listed as antisense oligonucleotides): 0.62 fmol/mg protein/h
- effect on in vitro translation of hnRNP-E1 [6]: dose-dependent inhibition of translation of hnRNP-E1

- RNA-protein signals relative to L-homocysteine [4]: no detectable signals
Compound: N[C@@H](CCC(=O)N[C@@H](CS)C(=O)NCC(=O)O)C(=O)O [glutathione]
- hnRNP-E1 activation and mRNA-binding [3]: far less

Compound: N[C@H](CCS)C(=O)O [D-homocysteine]
- hnRNP-E1 activation and mRNA-binding [3]: did not have any effect

Compound: NC1CCSC1=O (stereo not shown) [homocysteine thiolactone]
- hnRNP-E1 activation and mRNA-binding [3]: far less

Compound: NC(CCS)C(=O)O (racemic) [DL-homocysteine]
- hnRNP-E1 activation and mRNA-binding [3]: far less

Compound: O.O.O.O.O.O.[Cl-].[Cl-].[Cl-].[Fe+3] [iron(III), ferric chloride hexahydrate]
- effect on RNA-complex formation ([7]; 10-mM glutathione): comparable dose-dependent reduction in RNA-complex formation
- effect on formation of RNA-protein complexes ([7]; no glutathione): no such influence

- basal translation of folate receptor-α mRNA in vitro ([1]; increasing NEM): diminished in a dose-dependent manner
Compound: CCN1C(=O)C=CC1=O [N-ethylmaleimide]
- effect on in vitro translation of hnRNP-E1 [6]: progressive reduction in the amount of hnRNP-E1 translated

- RNA-protein signals relative to L-homocysteine [4]: no detectable signals
Compound: CSCC[C@H](N)C(=O)O [methionine]
- hnRNP-E1 activation and mRNA-binding [3]: did not have any effect

- RNA-protein signals relative to L-homocysteine [4]: much stronger RNA-protein signals
Compound: OCCS [ß-ME, ß-mercaptoethanol]

- RNA-protein signals relative to L-homocysteine [4]: much stronger RNA-protein signals
Compound: O[C@H](CS)[C@H](O)CS (racemic) [dithiothreitol]

Compound: GST-hnRNP-E1(G292A): control mutant, glycine-292 mutated to alanine; behaved similar to wild-type hnRNP-E1
- Kd [8]: 1.57 nM and 1.5 nM
- Kd [9]: 2.02 nM
- [^35S]cysteine-hnRNP-E1 [10]: 1.03 ± 0.21 b fmol/mg protein/h
- [^35S]cysteine-hnRNP-E1 [10, 14]: 1.03 fmol/mg protein/h
- RNA-protein gel-shift signal [11]: no RNA-protein gel-shift signals
- [^35S]cysteine-folate receptor [12]: 1.79 ± 0.13 b fmol/mg protein/h
- [^35S]cysteine-folate receptor [12, 14]: 1.79 fmol/mg protein/h
- HPV16 L2 protein signal [13]: insignificant reduction of HPV16 L2 protein signal
